In patent publication US20190062371A1, “PEPTIDE COMPOSITIONS AND RELATED METHODS” (Allegro Pharmaceuticals, Inc., priority 2017, published 2019):

Test system: ischemia-induced retinal neovascularization
Assay: Mouse model of retinopathy of prematurity (ROP), ischemia-induced retinal neovascularization
Format: in vivo, C57Bl/6 mice
Conditions: for Activity At Dose Tested: intravitreal 20 micrograms, P17; for Mean % Reduction of Retinal Neovascularization In ROP Model: intravitreal injection of 1.0 microliters containing 20 micrograms of Test Compound at P12, neovascular area at P17 (Taurine solutions 3.0 mg/100 μL)
Description: Each test compound was prepared in sterile water for injection, containing 0.08 mg/100 μL of sodium chloride and 0.005 mg/100 μL of trisodium citrate, the concentration of the peptide was at a concentration of […] and pH=2.7 and dispensed by sterile filtration into sterile vials. The Taurine test compound was obtained from Sigma Aldrich company, which was >99% pure, and prepared the same way as mentioned previously, having a concentration of 3.0 mg/100 μL. The R-G-Cys(acid) at 2.0 mg/100 μL+Taurine at 3.0 mg/100 μL were prepared the same way as mentioned above
To screen the test compounds for activity against ischemia-induced retinal neovascularization, the well-established model of retinopathy of prematurity (ROP) in mice was used. Litters of C57Bl/6 mice were placed in 75% oxygen at postnatal day (P) 7, returned to room air at day (P) 12. The Pups were randomly assigned to treatment groups of 4 to 10 animals per group. The pups were treated as follows: Treatment eyes were treated by intravitreal injection of 1.0 microliters of solution containing 20 micrograms of Test Compound.
On post-natal day 17, 5 days after intravitreal injection, the animals were sacrificed, the retinas were flat mounted and the area of neovascularization in each retina was determined by Fluorescein-dextran image analysis.
Applicant has identified the tripeptide R-G-Cysteic(Acid) as an integrin binding motif of the oligopeptide Glycinyl-Arginyl-Glycinyl-Cysteic(Acid)-Threonyl-Proline (ALG-1001 or Luminate®, Allegro Ophthalmics, LLC). The trifluoroacetate (TFA) and acetate salts of the R-G-Cysteic(Acid) tripeptide (Test Compound Nos. 1 and 2) were tested in both the ROP Mouse Model as described above as well as in a mouse model of choroidal neovascularization induced by laser photocoagulation (“CNV Mouse Model”), as generally as described in Lambert, V., et al., Laser-Induced Choroidal Neovascarization Model to Study Age Related Macular Degeneration in Mice, Nature Protocols, 8; 2197-2211 (2013). […] In some of the experiments, an additional “Positive Control” group was included.
The following Table 1 summarizes the neovascularization inhibiting effect of each Test Compound at the dose tested. In each instance, the data was obtained using the ROP Mouse Model, except for the two table entries specifically labeled “CNV”. Only those table entries labeled “CNV” show data obtained from the CNV Mouse Model. Bar graphs showing the test results summarized in Table 1 are also provided herewith as FIGS. 1 through 27.

With NCCS(=O)(=O)O [Test Compound 25, Taurine, reference compound] the “Activity At Dose Tested” value was “Slightly Active” and the “Mean % Reduction of Retinal Neovascularization In ROP Model” value (shortened to “Mean % Reduction”) was 33%.

In the case of “Cyclo-{R-G-Cys(acid)-F—N—Me—V} Acetate [Test Compound 12]”, the “Activity At Dose Tested” value is reported as “Active” and the “Mean % Reduction” value is reported as 57%.

With “Cyclo-{R-G-D-D-F—NMe—V}•TFA [Test Compound 13]” the “Activity At Dose Tested” value was “Active” and the “Mean % Reduction” value was 75%.

R-A-Cys (acid)•TFA [Test Compound 3] was tested, and the “Activity At Dose Tested” value was “Active” and the “Mean % Reduction” value was 60%.

R-D-G•TFA [Test Compound 18] was tested, and the “Activity At Dose Tested” value was “Active” and the “Mean % Reduction” value was 44%.

“R-G-Cys(acid)-G-G-GD-G•TFA [Test Compound 7]” was tested, and the “Activity At Dose Tested” value was “Active” and the “Mean % Reduction” value was 62%.
